Results from US20180085340A1, “METHOD FOR TREATING MELANOMA” (TCI CO., LTD, priority 2016, published 2018).

System: Homo sapiens skin malignant melanoma cells (A375.S2 cell line)
Assay: MTT assay of survival of malignant melanoma cells
Format: cell-based
Conditions: for Relative survival rate (%) / Average of absorbance values (n = 4): 48 hours; for Relative survival rate (%): relative to control group, n = 4; for Average of absorbance values (n = 4): OD at 570 nm, MTT
Experimental: Homo sapiens skin malignant melanoma cells (A375.S2 cell line) were cultivated for 24 hours, and then divided into four groups (5×10^3 cells for each group). The four groups were respectively cultivated in the following medium for 48 hours: • 1. Control group: a MEM-NEAA medium contains 1 mmol of sodium pyruvate and 10% of FBS. • 2. High-dose group: a MEM-NEAA medium contains 1 mmol of sodium pyruvate, 10% of FBS and 1 mg/ml of the compound of formula (I) obtained from Example 1. • 3. Middle-dose group: a MEM-NEAA medium contains 1 mmol of sodium pyruvate, 10% of FBS and 0.5 mg/ml of the compound of formula (I) obtained from Example 1. • 4. Low-dose group: a MEM-NEAA medium contains 1 mmol of sodium pyruvate, 10% of FBS and 0.25 mg/ml of the compound of formula (I) obtained from Example 1.
Thereafter, the absorbance value (optical density, OD) at 570 nm of each group was determined by the MTT assay.
Steps of the above cultivation and MTT assay were repeated four times. The absorbance values were averaged in each group, and the result of the control group was served as a basis for calculating the relative survival rate of other groups.

COc1cc([C@@H]2Oc3c(OC)cc(/C=C/C(=O)NCCc4ccc(O)cc4)cc3[C@@H]2C(=O)NCCc2ccc(O)cc2)ccc1O [compound of formula (I), N-trans-grossaminde]
Relative survival rate (%) (0.25 mg/ml compound in medium): 93.67% | Relative survival rate (%) (0.5 mg/ml compound in medium): 22.14% | Relative survival rate (%) (1 mg/ml compound in medium): 12.24% | Average of absorbance values (n = 4) (0.25 mg/ml compound): 0.733 | Average of absorbance values (n = 4) (0.5 mg/ml compound): 0.1732 | Average of absorbance values (n = 4) (1 mg/ml compound): 0.09575 | induction of apoptosis of malignant melanoma cells (conclusion drawn from MTT survival rates): effectively induce apoptosis
